Patent US20120309934A1, “INTRACELLUAR TARGETING BIPODAL PEPTIDE BINDER” (priority 2009, published 2012)
pKd: −log10 of the molar value. Residues, ends and D or L forms follow the SMILES beside them. No end group written: not given here.

What was measured:
Assay type in all cases: binding
VCAM1 = target: T1, VCAM1 (Homo sapiens, UniProt P19320); experiment: Recombinant phage ELISA specificity to VCAM1; details: recombinant phage ELISA against several proteins
T1 construct: made in house; host or cells: E. coli AD494 (pET32a)
T1 sequence (P19320 25-739): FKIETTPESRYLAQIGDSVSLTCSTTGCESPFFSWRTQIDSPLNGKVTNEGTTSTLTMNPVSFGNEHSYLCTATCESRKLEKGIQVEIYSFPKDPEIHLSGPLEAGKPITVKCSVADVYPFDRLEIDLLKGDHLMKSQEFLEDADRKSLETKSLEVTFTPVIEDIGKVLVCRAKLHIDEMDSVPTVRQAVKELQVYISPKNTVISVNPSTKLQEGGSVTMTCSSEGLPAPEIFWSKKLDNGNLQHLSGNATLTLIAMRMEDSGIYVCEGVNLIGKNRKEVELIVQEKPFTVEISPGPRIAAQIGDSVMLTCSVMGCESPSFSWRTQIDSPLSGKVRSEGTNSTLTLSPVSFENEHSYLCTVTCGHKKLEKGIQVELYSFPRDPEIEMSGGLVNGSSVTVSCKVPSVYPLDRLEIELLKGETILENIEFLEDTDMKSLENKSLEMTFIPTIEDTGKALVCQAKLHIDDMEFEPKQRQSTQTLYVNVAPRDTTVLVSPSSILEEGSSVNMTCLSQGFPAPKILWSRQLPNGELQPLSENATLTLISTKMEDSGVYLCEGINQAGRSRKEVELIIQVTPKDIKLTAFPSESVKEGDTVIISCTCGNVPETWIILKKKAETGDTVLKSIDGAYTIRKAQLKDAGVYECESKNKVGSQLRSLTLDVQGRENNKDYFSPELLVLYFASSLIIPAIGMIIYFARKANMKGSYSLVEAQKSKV
Method: (§1) Specificity of recombinant phages to each protein was carried out using ELISA. Each protein (5 μg/ml) was seeded into wells (50 μl per well) in a 96-well ELISA plate and next day, all wells were washed with 0.1% PBST (Tween-20) three times, and blocked at room temperature for 2 hrs using 2% skim milk. Then, the solution was completely removed and the plate was washed with 0.1% PBST three times. Recombinant phages containing the peptide of the present invention were thoroughly mixed with 2% BSA. Each mixture (100 μl) was divided into wells coated with 10 proteins and kept to stand at 27° C. for 2 hrs. After washing with 0.1% PBST 5 times, HRP-conjugated anti-M13 antibodies (1:1,000 dilution; GE Healthcare) were added to each well and incubated at 27° C. for 1 hr. After washing with 0.1% PBST 5 times, 100 μl TMB was divided into each well to induce colorimetric reaction, followed by stopping the reaction adding 100 μl of 1 M HCl. The absorbance was measured at 450 nm.

HSA = target: T2, HSA (Homo sapiens, UniProt P02768); experiment: Recombinant phage ELISA specificity to HSA; details: recombinant phage ELISA against several proteins
T2 construct: purchased Genetex Inc. (Irvine)
T2 sequence (P02768 25-609): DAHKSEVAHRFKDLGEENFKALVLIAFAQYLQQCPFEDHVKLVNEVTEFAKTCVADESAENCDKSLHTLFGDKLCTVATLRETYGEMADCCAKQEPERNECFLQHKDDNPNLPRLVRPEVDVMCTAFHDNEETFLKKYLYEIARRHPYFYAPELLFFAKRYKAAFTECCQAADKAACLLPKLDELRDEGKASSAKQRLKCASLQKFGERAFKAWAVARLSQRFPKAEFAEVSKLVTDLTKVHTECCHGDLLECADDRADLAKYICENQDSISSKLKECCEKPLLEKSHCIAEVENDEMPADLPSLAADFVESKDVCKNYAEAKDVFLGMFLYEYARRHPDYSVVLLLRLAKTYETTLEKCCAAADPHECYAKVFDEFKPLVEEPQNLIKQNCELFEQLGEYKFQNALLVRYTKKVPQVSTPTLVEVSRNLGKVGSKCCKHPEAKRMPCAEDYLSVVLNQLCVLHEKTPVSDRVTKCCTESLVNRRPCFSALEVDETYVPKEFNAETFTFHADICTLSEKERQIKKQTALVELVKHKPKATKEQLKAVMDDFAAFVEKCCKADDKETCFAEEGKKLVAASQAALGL
Method: as §1

[1] = target: T3, nAchR (Nicotinic acetylcholine receptor) (Mus musculus, UniProt P04756); experiment: SPR (Biacore) affinity to nAchR peptide fragment
T3 construct: Biotin-[…]; (32 mer), a peptide fragment of nAchR; purchased Anigen Inc. (Korea, Kwangju), custom synthesis
T3 sequence (P04756 193-224 limits assumed): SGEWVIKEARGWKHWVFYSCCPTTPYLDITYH
Method: Affinity was measured using BIAcore X instrument (Biacore AB, Uppsala, Sweden). ED-B and nAchR were immobilized on streptavidin (SA) chip (Biacore) by injecting 2,000 RU biotinylated-EDB. VEGF was immobilized on CM5 chip (Biacore) using EDC/NHS. PBS (pH 7.4) was used as a running buffer.

nAchR = target: T4, nAchR (Mus musculus, UniProt P04756); experiment: Recombinant phage ELISA specificity to nAchR; details: recombinant phage ELISA against several proteins
T4 construct: Biotin-[…]; (32 mer), a peptide fragment of nAchR; purchased Anigen Inc. (Korea, Kwangju), custom synthesis
T4 sequence (P04756 193-224 limits assumed): as above
Method: as §1

VEGF = target: T5, VEGF (Homo sapiens, UniProt P15692); experiment: Recombinant phage ELISA specificity to VEGF; details: recombinant phage ELISA against several proteins
T5 construct: Trx (thioredoxin, pET32a) (N, cleaved yes); made in house; host or cells: E. coli AD494 (pET32a)
T5 sequence (P15692 27-147 isoform P15692-9 limits assumed): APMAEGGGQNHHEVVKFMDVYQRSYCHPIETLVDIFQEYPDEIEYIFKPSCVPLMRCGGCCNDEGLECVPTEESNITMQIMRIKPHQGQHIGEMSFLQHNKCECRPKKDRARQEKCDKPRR
Method: as §1

fibronectin ED-B = target: T6, fibronectin ED-B (Homo sapiens, UniProt P02751); experiment: Recombinant phage ELISA specificity to fibronectin ED-B; details: 450 nm, 10 proteins
T6 construct: After transformation of pET28b vector carrying fibronectin ED-B into BL21 cells; made in house; host or cells: E. coli BL21 (pET28b)
T6 sequence (P02751 1271-1359 limits assumed): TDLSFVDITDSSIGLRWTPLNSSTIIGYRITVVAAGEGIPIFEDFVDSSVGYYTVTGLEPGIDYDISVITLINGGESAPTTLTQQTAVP
Method: as §1

STAT3 = target: T7, STAT3 (Homo sapiens, UniProt P40763); experiment: Phage ELISA to STAT3 (clone screening and specificity); details: recombinant phage ELISA
T7 construct: endogenous in cells; host or cells: DU145
T7 sequence (P40763 whole entry, species assumed): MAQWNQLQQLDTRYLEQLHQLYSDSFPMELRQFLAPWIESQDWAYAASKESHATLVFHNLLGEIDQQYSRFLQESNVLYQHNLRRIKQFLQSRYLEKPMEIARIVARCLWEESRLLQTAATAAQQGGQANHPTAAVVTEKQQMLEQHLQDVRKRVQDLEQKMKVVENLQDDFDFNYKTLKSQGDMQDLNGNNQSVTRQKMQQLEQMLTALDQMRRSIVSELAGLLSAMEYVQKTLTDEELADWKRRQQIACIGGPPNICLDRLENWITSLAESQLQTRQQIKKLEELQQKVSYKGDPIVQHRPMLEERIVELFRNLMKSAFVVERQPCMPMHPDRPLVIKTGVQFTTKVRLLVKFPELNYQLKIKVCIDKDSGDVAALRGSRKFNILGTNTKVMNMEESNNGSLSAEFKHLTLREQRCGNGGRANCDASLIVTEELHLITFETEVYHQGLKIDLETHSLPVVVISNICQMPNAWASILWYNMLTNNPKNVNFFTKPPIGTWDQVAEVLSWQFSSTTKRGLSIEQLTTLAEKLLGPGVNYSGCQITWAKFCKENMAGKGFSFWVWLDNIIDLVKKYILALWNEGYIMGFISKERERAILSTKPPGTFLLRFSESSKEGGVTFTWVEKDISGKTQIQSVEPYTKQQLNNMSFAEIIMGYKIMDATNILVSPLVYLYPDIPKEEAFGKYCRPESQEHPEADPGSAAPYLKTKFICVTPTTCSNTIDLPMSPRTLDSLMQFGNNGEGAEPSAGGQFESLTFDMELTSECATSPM
Method: XL1-BLUE cells were transformed with phages recovered from the 4th biopanning step having the highest ratio of output phage to input phage, and spread in plate to produce 100-200 of plaques. Using a sterile tip, 60 plaques were inoculated in 2 ml LB-ampicillin (50 μg/ml) media and cultured at 37° C. for 5 hr with vigorous shaking. The transformed cells were infected with Ex helper phages (5×10^9 pfu/ml; OD=0.8-1.0) and cultured at 37° C. for 1 hr with shaking at 200 rpm. After removing the supernatant by centrifuging at 1,000×g for 10 min, the precipitated cells were resuspended in 1 ml LB liquid media supplemented with 50 μg/ml ampicillin and 25 μg/ml kanamycin, and cultured at 30° C. overnight with shaking at 200 rpm. The supernatant was collected by centrifuging at 10,000×g for 20 min at 4° C. and mixed with 2% skim milk, which is used in detection of phage peptides.
STAT3 (10 μg/ml), BSA (10 μg/ml) and streptavidin (10 μg/ml) each was added to 30 wells (50 μl per well) in a 96-well ELISA plate and then kept to stand at 4° C. overnight. Next day, all wells were washed with 0.1% PBST three times, and blocked at room temperature for 2 hrs using 2% skim milk diluted with PBS. Then, the solution was removed and the plate was washed with 0.1% PBST three times. […] The absorbance was measured at 450 nm to select phages which had the absorbance above 20-fold higher than BSA. […]

MyD88 = target: T8, MyD88 (Homo sapiens, UniProt Q99836); experiment: Recombinant phage ELISA specificity to MyD88; details: recombinant phage ELISA against several proteins
T8 construct: purchased Santa Cruz Biotechnology sc-4540 WB
T8 sequence (Q99836 whole entry): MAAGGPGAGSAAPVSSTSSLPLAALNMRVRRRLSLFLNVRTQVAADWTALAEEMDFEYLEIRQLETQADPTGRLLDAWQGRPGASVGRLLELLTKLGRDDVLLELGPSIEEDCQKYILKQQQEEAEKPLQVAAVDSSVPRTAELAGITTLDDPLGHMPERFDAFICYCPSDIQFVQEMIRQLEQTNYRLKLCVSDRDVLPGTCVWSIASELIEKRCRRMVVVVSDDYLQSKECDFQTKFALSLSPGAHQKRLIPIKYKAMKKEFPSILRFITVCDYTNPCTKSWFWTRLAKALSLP
Method: as §1
The MyD88-specific bipodal-peptide binders were analyzed to have target specificity to MyD88 by the ELISA (FIG. 6f).

For `CC[C@H](C)[C@H](NC(=O)[C@@H]1CCCN1C(=O)[C@H](CS)NC(=O)[C@@H](NC(=O)[C@H](CO)NC(=O)[C@@H]1CCCN1C(=O)CNC(=O)[C@H](CCCCN)NC(=O)[C@H](Cc1c[nH]c2ccccc12)NC(=O)[C@@H](NC(=O)[C@H](Cc1c[nH]c2ccccc12)NC(=O)[C@H](CCCCN)NC(=O)CNC(=O)[C@H](CC(N)=O)NC(=O)[C@H](CCC(=O)O)NC(=O)[C@H](Cc1c[nH]c2ccccc12)NC(=O)[C@@H](NC(=O)[C@H](Cc1c[nH]c2ccccc12)NC(=O)[C@H](CO)NC(=O)CNC(=O)[C@@H](NC(=O)[C@H](CS)NC(=O)[C@H](CC(=O)O)NC(=O)[C@H](CCCNC(=N)N)NC(=O)[C@H](C)NC(=O)[C@@H](N)CCC(N)=O)[C@@H](C)O)[C@@H](C)O)[C@@H](C)O)[C@@H](C)CC)C(=O)O` [Peptide 1 (Table 3c)] (H-QARDCTGSWTWENGKWTWKGPSICPI-OH; N-terminus and C-terminus assumed), the “specificity for VCAM1” value (VCAM1) was “has specificity”.

For “AASPYKGSWTWENGKWTWKGGWRMKM [Peptide 1 (Table 3e)]”, the “specificity for HSA” value (HSA) was “has specificity”.

“EASFWLGSWTWENGKWTWKGKGTLNR [Peptide 1 (Table 3d)]” was tested, and the pKd [1] was 7.14 and the “specificity for nAchR” value (nAchR) was “has specificity”.

In the case of “HANFFQGSWTWENGKWTWKGWKYNQS [Peptide 1 (Table 3b)]”, the “specificity for VEGF” value (VEGF) was “has specificity”.

For “HCSSAVGSWTWENGKWTWKGIIRLEQ [2 (Table 3a)]”, the “absorbance for ED-B higher than that of other proteins” value (fibronectin ED-B) was “above 30 fold”.

“HGFQWP GSWTWENGKWTWKG AYQFLK (GSWTWENGKWTWKGAYQFLK) [Peptide 2 (STAT3)]” was tested, and the “specificity to STAT3 compared to other proteins” value (STAT3) was “specificity to STAT3”.

In the case of “HSHAFYGSWTWENGKWTWKGNPGWWT [Peptide 1 (Table 3f)]”, the “specificity for MyD88” value (MyD88) was “has specificity”.

With “QAYYIPGSWTWENGKWTWKGLWGPEF [Peptide 1 (STAT3), QAYYIP GSWTWENGKWTWKG LWGPEF]” the “specificity to STAT3 compared to other proteins” value (STAT3) was “specificity to STAT3”.
